Reference: patent publication US9585903B2, “Pharmaceutical composition comprising sophorolipid in combination with an antibiotic” (priority 2013, dated 2017)
Structures can show the parent of a compound that is named as a salt. Where two headings read alike, the source gives them in different places.

Assays:
Type in all cases: cell-based
[1] = system: Staphylococcus aureus (ATCC-29737); assay: MIC determination on culture plate
From the text: (§1) The test microorganisms—Staphylococcus aureus (ATCC-29737) (gram positive) and Escherichia coli (ATCC-8739) (gram negative) used in the invention were procured from National Collection of Industrial Microorganisms, NCL. These two bacteria are of concern due to following reasons—Staphylococcus aureus, capable of causing wide range of severe skin infections; is rapidly evolving resistance to contemporary topical as well as systemic antibiotics (Englander and Friedman 2010). And Escherichia coli, another index bacterium; is more than just a harmless intestinal inhabitant; it can also be a highly versatile, and frequently deadly pathogen. Several different E. coli strains cause diverse intestinal and extra-intestinal diseases by means of virulence factors that affect a wide range of cellular processes (Kaper et al. 2004).
(§2) Accordingly, the stock solutions were prepared in sterile distilled water to assess the MIC values of the antibiotic and SL. The stock strength used was 1 mg/ml for antibiotics and 10 mg/ml for SL. The conjugative/synergistic effect of SL and tetracycline was checked against S. aureus while the conjugative effect of SL and cefaclor was checked against E. coli. In the first step, A600 i.e. absorbance of bacterial suspension giving isolated colonies was fixed and the same A600 was maintained throughout the experiment. Then the MIC values were determined for SL as well as antibiotic against the bacteria. Minimum Inhibitory Concentration (MIC) is defined as the lowest concentration of compound that inhibits visible growth of microorganisms on the culture plate (Rai et al. 2010). For assessing the conjugative effect, the sublethal concentrations of both antimicrobial agents were used so as to rightly evaluate the conjugative effect. Against S. aureus, sublethal concentration of SL was decided to be 300 μg/ml and for tetracycline it was 15 μg/ml.
(§3) The stock solutions were prepared in sterile distilled water to assess the MIC values of the antibiotic and SL. The stock strength used was 1 mg/ml for antibiotics and 10 mg/ml for SL. […]

[2] = system: Staphylococcus aureus (ATCC-29737); assay: Assay of conjugative action of SL and antibiotic (micro dilution and spread plate, CFU count, % cell survival); details: FIG. 2(a); tetracycline 15 μg/ml, SL 300 μg/ml; up to 6 h exposure
Method: (§4) Accordingly, the stock solutions were prepared in sterile distilled water to assess the MIC values of the antibiotic and SL. The stock strength used was 1 mg/ml for antibiotics and 10 mg/ml for SL. […] In the first step, A600 i.e. absorbance of bacterial suspension giving isolated colonies was fixed and the same A600 was maintained throughout the experiment. Then the MIC values were determined for SL as well as antibiotic against the bacteria. […] For assessing the conjugative effect, the sublethal concentrations of both antimicrobial agents were used so as to rightly evaluate the conjugative effect.
(§5) According to another aspect, the assay of conjugative action of SL and antibiotic was performed using standard micro dilution and spread plate method. The reaction mixtures were prepared by adding SL and antibiotic stock solutions to sterile distilled water in requisite volumes followed by the addition of bacterial suspension. The control reactions were also set with both bacterial systems to evaluate the effect of antibiotic and SL alone. Controls without addition of any antimicrobial agent were also maintained. The reaction mixtures were incubated at 28° C., 180 rpm for 6 h. The samples were removed at periodic intervals of 2 h, 4 h and 6 h and number of Colony Forming Units (CFUs) were determined by spreading 50 μl of mixture on Nutrient agar plates. […]

[3] = system: Escherichia coli (ATCC-8739); assay: MIC determination on culture plate; details: against E. coli (ATCC8739)
From the text: as §1, §2, §3

[4] = system: Escherichia coli (ATCC-8739); assay: Assay of conjugative action of SL and antibiotic (micro dilution and spread plate, CFU count, % cell survival)
Method: as §4, §5

Row | MIC [3] | SMILES | MIC ([1]; Staphylococcus aureus, against S. aureus (ATCC29737), read-out: MIC value) | MIC ([1]; against Staphylococcus aureus) | inhibition of S. aureus (in words) [2] | exposure required to get equivalent effect (~98% killing) ([4]; E. coli, cefaclor alone 50 μg/ml) | inhibition of E. coli (in words) ([4]; FIG. 2(b), cefaclor 50 μg/ml, SL 500 μg/ml, up to 6 h exposure)
1 | – | CN(C)[C@@H]1C(O)=C(C(N)=O)C(=O)[C@@]2(O)C(O)=C3C(=O)c4c(O)cccc4[C@@](C)(O)[C@H]3C[C@@H]12 [tetracycline-HCl] | 150 µg/mL | 150 μn/ml | cannot achieve total inhibition even after 6 h | – | –
2 | 200 µg/mL | N[C@@H](C(=O)N[C@@H]1C(=O)N2C(C(=O)O)=C(Cl)CS[C@H]12)c1ccccc1 [Cefaclor] | – | – | – | 6 h | almost total inhibition at the end of 6 h exposure
